Measured values reported in patent US11622937B2, “Polyphenolic polymer to make water-insoluble molecules become water-soluble” (priority 2015, dated 2023).
Where a name gives a salt, the structure may show the parent alone.

Columns and labels:
[1] = estimated; cited from earlier work
[2] = cited from earlier work
[3] = Solubility with Polyphenolic Polymer in water; details: molecule formulated with Polyphenolic Polymer
[4] = Comparative study of solubility profile in water (spectrophotometric absorption at 262); assay type: physicochemical; details: 200 ml DI water, filtered 0.45 micron
Experimental: A comparative study was conducted to observe the solubility profile in water. Materials: Ibuprofen was purchased from Spectrum (USP grade) USA. […] Spectrophotometer used in the study is from Beckman Coulter DU800. Sample preparation; 200 mg of Ibuprofen was weighed and ground in a […] -mortar and dissolved in 200 ml of DI water.

C=C(c1ccc(C(=O)O)cc1)c1cc2c(cc1C)C(C)(C)CCC2(C)C [Bexarotene, Free Acid (4), Bexarotene]
solubility in water [1]: 10 to 50 µM
Reported Solubility in water [2]: Insoluble

C#Cc1cccc(Nc2ncnc3cc(OCCOC)c(OCCOC)cc23)c1 [Erlotinib Monohydrochloride]
Solubility with Polyphenolic Polymer in water (more than 99%) [3]: Water Soluble
Reported Solubility in water [2]: Insoluble

CCC(=O)O[C@]1(C(=O)SCF)[C@H](C)C[C@H]2[C@@H]3C[C@H](F)C4=CC(=O)C=C[C@]4(C)[C@@]3(F)[C@@H](O)C[C@@]21C [Fluticasone Propionate]
Solubility with Polyphenolic Polymer in water (more than 99%) [3]: Water Soluble
Reported Solubility in water [2]: Insoluble

CC(C)Cc1ccc(C(C)C(=O)O)cc1 (stereo not drawn) [Ibuprofen]
solubility [4]: less than 1%
Reported Solubility in water [2]: Insoluble

CCC(C)n1ncn(-c2ccc(N3CCN(c4ccc(OCC5COC(Cn6cncn6)(c6ccc(Cl)cc6Cl)O5)cc4)CC3)cc2)c1=O (stereo not drawn) [Itraconazole]
Solubility with Polyphenolic Polymer in water (more than 99%) [3]: Water Soluble
Reported Solubility in water [2]: Insoluble

O=c1c(O)c(-c2ccc(O)cc2)oc2cc(O)cc(O)c12 [Kaempferol]
Solubility with Polyphenolic Polymer in water (more than 99%) [3]: Water Soluble
Reported Solubility in water [2]: Insoluble

Nc1cccc2c1CN(C1CCC(=O)NC1=O)C2=O (stereo not drawn) [Lenalidomide]
Solubility with Polyphenolic Polymer in water (more than 99%) [3]: Water Soluble
Reported Solubility in water [2]: Insoluble

CN(Cc1cnc2nc(N)nc(N)c2n1)c1ccc(C(=O)N[C@@H](CCC(=O)O)C(=O)O)cc1 [Methotrexate]
Solubility with Polyphenolic Polymer in water (more than 99%) [3]: Water Soluble
Reported Solubility in water [2]: Insoluble

Cc1nc2n(c(=O)c1CCN1CCC(c3noc4cc(F)ccc34)CC1)CCCC2O (stereo not drawn) [Paliperidone]
Solubility with Polyphenolic Polymer in water (more than 99%) [3]: Water Soluble
Reported Solubility in water [2]: Insoluble

CN1C(C(=O)Nc2ccccn2)=C(O)c2ccccc2S1(=O)=O [Piroxicam (pain), Piroxicam]
Solubility with Polyphenolic Polymer in water (more than 99%) [3]: Water Soluble
Reported Solubility in water [2]: Insoluble

Nc1cccc2c1C(=O)N(C1CCC(=O)NC1=O)C2=O (stereo not drawn) [Pomalidomide]
Solubility with Polyphenolic Polymer in water (more than 99%) [3]: Water Soluble
Reported Solubility in water [2]: Insoluble

CC[C@H](C)C(=O)O[C@H]1C[C@H](O)C=C2C=C[C@H](C)[C@H](CC[C@@H](O)C[C@@H](O)CC(=O)O)[C@H]21 [Pravastatin Sodium]
Solubility with Polyphenolic Polymer in water (more than 99%) [3]: Water Soluble
Reported Solubility in water [2]: Insoluble

CCc1nc(N)nc(N)c1-c1ccc(Cl)cc1 [Pyrimethamine]
Solubility with Polyphenolic Polymer in water (more than 99%) [3]: Water Soluble
Reported Solubility in water [2]: Insoluble

CO[C@H]1C[C@@H]2CC[C@@H](C)[C@@](O)(O2)C(=O)C(=O)N2CCCC[C@H]2C(=O)O[C@H]([C@H](C)C[C@@H]2CC[C@@H](O)[C@H](OC)C2)CC(=O)[C@H](C)/C=C(\C)[C@@H](O)[C@@H](OC)C(=O)[C@H](C)C[C@H](C)/C=C/C=C/C=C/1C [Rapamycin]
Solubility with Polyphenolic Polymer in water (more than 99%) [3]: Water Soluble
Reported Solubility in water [2]: Insoluble

CO[C@H]1/C=C/O[C@@]2(C)Oc3c(C)c(O)c4c(O)c(c(/C=N/N5CCN(C)CC5)c(O)c4c3C2=O)NC(=O)/C(C)=C\C=C\[C@H](C)[C@H](O)[C@@H](C)[C@@H](O)[C@@H](C)[C@H](OC(C)=O)[C@@H]1C [Rifampin]
Solubility with Polyphenolic Polymer in water (more than 99%) [3]: Water Soluble
Reported Solubility in water [2]: Insoluble
